Test results as given in patent publication US5041426A, “Immune system enhancing 3-β-d-ribofuranosylthiazolo[4,5-d]pyridimine nucleosides and nucleotides” (priority 1988, dated 1991).
Where “and” joins values, the source holds several entries; their conditions need not be identical. Equal entries are not always repeated.

Tests used:
P388 [1] = assay: Response of P388 inoculated mice to various dosages, inocula and schedules; assay type: in vivo, mouse
Source text: For this example varying concentrations of the number of test cells utilized for P388 inoculum and concentrations of compound 7 were utilized with various schedules of drug administration.
^a P388 ascites cells were implanted ip in the concentrations
indicated in BDF1 female mice on day 0, and ip bolus injections of
drug were delivered once daily on the days indicated in the conentrations
indicated. Control mice received a 0.09% solution of NaCl delivered on th

P388 [2] = assay: Mean life span and viable tumor cells of P388 inoculated mice, by delivery schedule; assay type: in vivo, mouse; details: qd; for Postinoculation Life Span: pooled 37, 62 or 104 mg/kg/injection; for Change in Life Span / Viable Cells Day 6: pooled doses
Protocol: In this example as summarized in table 30, different drug delivery regimen were utilized for compound 7 against P388 in the mouse and the postinoculation life span, the change in life span and the number of viable tumor cells at day 6 measured. For this test the data shown are pooled by schedule without regard for dosage. Each treatment group included a total of 15 mice divided into sub-groups of 5 mice treated respectively with 37, 62 or 104 mg/kg/injection of drug per sub-group. After treatment the test animals were monitored for survival.
^a P388 ascites cells (1 × 10^6) were implanted ip in
BDF1 female mice on day 0, and ip bolus injections of drug were
delivered once daily on the days indicated. The drug was delivered on the
basis of 0.01 ml/g mouse weight. Control mice received a 0.09% solution o
NaCl delivered on the same basis.

[3] = tested on: Reticulum-cell Sarcoma M5076; assay: Mean life span of mice with metastatic reticulum-cell sarcoma; assay type: in vivo, mouse
Protocol: Effect of drug treatment on the mean life span of host animals implanted with metastatic reticulum-cell sarcoma M5076 was measured using the same test protocol as per example 54. The host animals were drug dosed for 20 days as per example 54, however, as opposed to example 54 they were monitored for survival.
^a Fragments of reticulumcell sarcoma M5076 (≈14 mg) were
implanted sc in the left flank of BDF1 female mice and ip bolus
injections of drug were initiated 24 hrs later. The drug was delivered on
the basis of 0.01 ml/g mouse weight. Control mice received a 0.09%
solution of NaCl delivered on the same basis. Six mice were used per
treatment group. Treatment give qd for days 1-20 and animals monitored
after treatment for survival.

K562 tumor cells = assay: In vitro augmentation of human natural killer cell activity (PBMNC, 51Cr release); assay type: cell-based; set-up: % Increase in Induced Natural Killer Cell Activity: concentration or dose not given beside the values
Protocol: The natural killer cell activity in human cells was also measured. In conducting these tests peripheral blood mononuculear cells (PBMNC) were isolated on Ficoll-Hypaque gradient, washed three times in Hanks and re-suspended in RPMI-1640 containing 10% human AB serum as described in Rosenberg, S. A.: Journal American Medical Association, 256:3117, 1986 and the above referred to reference to Djeu, et al. Peripheral blood mononuclear cells (PBMNC) from eleven different donors were treated with compound 7 as described in Djeu, et al. as well as Sharma, B., Odom, L. F.: Cancer Immunol. Immunother. 7.93, 1979, and Sharma, B., Odom, L. F.: Cancer Research 44:3258, 1984.
The PBMNC cells were incubated with compound 7 at 37° C. for 20 to 68 hours in a 5% CO2 humid atmosphere and after incubation the cytotoxicity was determined against K562 tumor cells.
^a Peripheral blood mononuclear cells were treated with 0.05 - 0.4 mM
concentration of compound 7 in RPM11640 containing 10% human AB serum for
20 to 68 hours. After the treatment, effector cells were tested against
K562 target cells in 4 hour ^51 Cr release assay as described in
Sharma et al. above. The data shown here represent the maximum response.
K562 target cells in 4 hour ^51 Cr release assay as previously
described above in Sharma et al. The data represent the maximum response.
Other Nucleosides and Nucleotides of the invention were tested for their activity in human natural killer cells […] as per example 33 above.

murine B16 melanoma = assay: Artificially induced pulmonary metastatic foci of B16 melanoma in mice; assay type: in vivo, mouse; details: Group 2: 100 mg/kg i.p. 24 h before tumor injection
Protocol: Test drug, compound 7, was given to groups of test animals. The groups includes a first control group, a second group given drug 24 hours prior to intravenous tumor injection, a third group given drug both 24 hours prior to intravenously tumor injection and 72 hours post tumor injection and a fourth group given drug 72 hours post tumor injection.
^a 10 week old, female C57B1/6 mice in groups of 5 each were injected
intravenously with 5 × 10^5 of B16 melanoma tumor cells. The
mice in groups 2, 3 and 4 were treated by injection of 100 mg/kg of drug

[4] = tested on: Encephalomyocarditis virus; assay: Single versus multiple treatments on Encephalomyocarditis virus infection in mice; assay type: in vivo, mouse; details: for Mean Survival Time: of mice that died

Q: Nc1nc2c(sc(=O)n2[C@@H]2O[C@H](CO)[C@@H](O)[C@H]2O)c(=O)[nH]1 [Compound 7, 5-Amino-3-β-D-ribofuranosylthiazolo[4,5-d]pyrimidine-2,7(6H)-dione] was tested. Which “groups showing an increase in life span” value (P388 [1]; 26 of the 34 groups) did it give?
A: 76%

Q: And the “% Increased Life Span” value (P388 [1]; Study 1, 1 × 10^2 cells, 37 mg/kg/inj day 1-9)?
A: 0%

Q: What about the “% Increased Life Span” value (P388 [1]; Study 1, 1 × 10^2 cells, 37 mg/kg/inj day 1, 3 mice, printed as cures) of the same compound?
A: 2 cures

Q: And the “% Increased Life Span” value (P388 [1]; Study 1, 1 × 10^2 cells, 62 mg/kg/inj day 1-9)?
A: 33%

Q: And the “% Increased Life Span” value (P388 [1]; Study 1, 1 × 10^2 cells, 62 mg/kg/inj day 1, 3 mice, printed as cures)?
A: 1 cure

Q: And the “% Increased Life Span” value (P388 [1]; Study 1, 1 × 10^2 cells, 104 mg/kg/inj day 1)?
A: 0%

Q: What about the “% Increased Life Span” value (P388 [1]; Study 1, 1 × 10^2 cells, 104 mg/kg/inj day 1-9) of the same compound?
A: 10%

Q: What about the “% Increased Life Span” value (P388 [1]; Study 2, 1 × 10^2 cells, 8 mg/kg/inj day 1) of the same compound?
A: 9%

Q: What about the “% Increased Life Span” value (P388 [1]; Study 2, 1 × 10^2 cells, 13 mg/kg/inj day 1) of the same compound?
A: 7%

Q: And the “% Increased Life Span” value (P388 [1]; Study 2, 1 × 10^2 cells, 22 mg/kg/inj day 1)?
A: 7%

Q: What about the “% Increased Life Span” value (P388 [1]; Study 2, 1 × 10^2 cells, 37 mg/kg/inj day 1) of the same compound?
A: 3%

Q: And the “% Increased Life Span” value (P388 [1]; Study 3, 1 × 10^4 cells, 37 mg/kg/inj day 1)?
A: 2%

Q: And the “% Increased Life Span” value (P388 [1]; Study 3, 1 × 10^4 cells, 37 mg/kg/inj day 1-9)?
A: 0%

Q: And the “% Increased Life Span” value (P388 [1]; Study 3, 1 × 10^4 cells, 62 mg/kg/inj day 1)?
A: 0%

Q: And the “% Increased Life Span” value (P388 [1]; Study 3, 1 × 10^4 cells, 62 mg/kg/inj day 1-9)?
A: 2%

Q: What about the “% Increased Life Span” value (P388 [1]; Study 3, 1 × 10^4 cells, 104 mg/kg/inj day 1) of the same compound?
A: 0%

Q: What about the “% Increased Life Span” value (P388 [1]; Study 3, 1 × 10^4 cells, 104 mg/kg/inj day 1-9) of the same compound?
A: 6%

Q: And the “% Increased Life Span” value (P388 [1]; Study 4, 1 × 10^6 cells, 37 mg/kg/inj day 1)?
A: 0%

Q: What about the “% Increased Life Span” value (P388 [1]; Study 4, 1 × 10^6 cells, 37 mg/kg/inj day 1-9) of the same compound?
A: 5%

Q: What about the “% Increased Life Span” value (P388 [1]; Study 4, 1 × 10^6 cells, 62 mg/kg/inj day 1) of the same compound?
A: 0%

Q: And the “% Increased Life Span” value (P388 [1]; Study 4, 1 × 10^6 cells, 62 mg/kg/inj day 1-9)?
A: 5%

Q: And the “% Increased Life Span” value (P388 [1]; Study 4, 1 × 10^6 cells, 104 mg/kg/inj day 1)?
A: 9%

Q: What about the “% Increased Life Span” value (P388 [1]; Study 4, 1 × 10^6 cells, 104 mg/kg/inj day 1-9) of the same compound?
A: 23%

Q: And the “% Increased Life Span” value (P388 [1]; Study 5, 1 × 10^6 cells, 37 mg/kg/inj day 2)?
A: 0%

Q: And the “% Increased Life Span” value (P388 [1]; Study 5, 1 × 10^6 cells, 37 mg/kg/inj day 2,4)?
A: 8%

Q: What about the “% Increased Life Span” value (P388 [1]; Study 5, 1 × 10^6 cells, 37 mg/kg/inj day 2-6) of the same compound?
A: 8%

Q: And the “% Increased Life Span” value (P388 [1]; Study 5, 1 × 10^6 cells, 62 mg/kg/inj day 2)?
A: 5%

Q: What about the “% Increased Life Span” value (P388 [1]; Study 5, 1 × 10^6 cells, 62 mg/kg/inj day 2,4) of the same compound?
A: 8%

Q: What about the “% Increased Life Span” value (P388 [1]; Study 5, 1 × 10^6 cells, 62 mg/kg/inj day 2-6) of the same compound?
A: 15%

Q: And the “% Increased Life Span” value (P388 [1]; Study 5, 1 × 10^6 cells, 104 mg/kg/inj day 2)?
A: 10%

Q: And the “% Increased Life Span” value (P388 [1]; Study 5, 1 × 10^6 cells, 104 mg/kg/inj day 2,4)?
A: 5%

Q: And the “% Increased Life Span” value (P388 [1]; Study 5, 1 × 10^6 cells, 104 mg/kg/inj day 2-6)?
A: 12%

Q: What about the toxicity (P388 [1]; Study 6, 140 mg/kg/inj day 2,4,6,8, 7 mice) of the same compound?
A: toxic in one animal

Q: What about the “% Increased Life Span” value (P388 [1]; Study 6, 1 × 10^6 cells, 140 mg/kg/inj day 2) of the same compound?
A: 4%

Q: What about the “% Increased Life Span” value (P388 [1]; Study 6, 1 × 10^6 cells, 140 mg/kg/inj day 2,4,6,8) of the same compound?
A: 21%

Q: And the “% Increased Life Span” value (P388 [1]; Study 6, 1 × 10^6 cells, 140 mg/kg/inj day 2,6)?
A: 20%

Q: And the “Postinoculation Life Span” value (P388 [2]; day 2,4)?
A: 8.73 ± 0.59 days

Q: What about the “Change in Life Span” value (P388 [2]; day 2,4) of the same compound?
A: 7 % of Control

Q: And the “Viable Cells Day 6” value (P388 [2]; day 2,4)?
A: 66 % of Control

Q: And the “Postinoculation Life Span” value (P388 [2]; day 2-6, p < 0.001)?
A: 9.13 ± 0.52 days

Q: And the “Change in Life Span” value (P388 [2]; day 2-6)?
A: 12 % of Control

Q: What about the “Viable Cells Day 6” value (P388 [2]; day 2-6) of the same compound?
A: 49 % of Control

Q: And the “Postinoculation Life Span” value (P388 [2]; day 2)?
A: 8.60 ± 0.51 days

Q: And the “Change in Life Span” value (P388 [2]; day 2)?
A: 5 % of Control

Q: And the “Viable Cells Day 6” value (P388 [2]; day 2)?
A: 73 % of Control

Q: What about the “Increased Life Span” value ([3]; 37 mg/kg ip qd days 1-20) of the same compound?
A: 7.0 % of Control

Q: And the “Postinoculation Life Span” value ([3]; 37 mg/kg ip qd days 1-20)?
A: 32.33 ± 3.67 days

Q: What about the “Increased Life Span” value ([3]; 62 mg/kg ip qd days 1-20) of the same compound?
A: 19.8 % of Control

Q: And the “Postinoculation Life Span” value ([3]; 62 mg/kg ip qd days 1-20, p 0.01)?
A: 36.33 ± 0.82 days

Q: What about the “Increased Life Span” value ([3]; 104 mg/kg ip qd days 1-20) of the same compound?
A: 20.3 % of Control

Q: And the “Postinoculation Life Span” value ([3]; 104 mg/kg ip qd days 1-20, p < 0.03)?
A: 36.50 ± 4.55 days

Q: What about the “% Natural Killer Cell Cytotoxicity, + Compound 7” value (K562 tumor cells; 0.05 - 0.4 mM, 20 to 68 h, maximum response, donors 1 to 11, one line per donor in order) of the same compound?
A: 91% and 29% and 54% and 47% and 16% and 18% and 10% and 22% and 15% and 20% and 32%

Q: What about the “tests with an increase in the mediated potentiation” value (K562 tumor cells; Donor 1, Table 2b) of the same compound?
A: eight of the eight tests

Q: What about the “tests with an increase in the mediated potentiation” value (K562 tumor cells; Donor 2, Table 2b) of the same compound?
A: six of six tests

Q: What about the “mean natural killer cell cytotoxicity” value (K562 tumor cells; PBMNC from eleven donors pretreated with compound 7 (untreated mean 11.7%)) of the same compound?
A: 32.2%

Q: And the “% Natural Killer Cell Cytotoxicity” value (K562 tumor cells; Table 22, 0.2 mM)?
A: 10%

Q: And the “% Increase in Induced Natural Killer Cell Activity” value (K562 tumor cells; donors 1 to 11, one line per donor in order)?
A: 1031% and 548% and 220% and 88% and 123% and 141% and 167% and 150% and 0% and 63% and 8%

Q: And the “potentiation in natural killer cell cytotoxicity” value (K562 tumor cells; eight of eleven donors)?
A: over 100%

Q: What about the “Mean No. Of Metastatic Foci in Lungs” value (murine B16 melanoma) of the same compound?
A: 8

Q: And the “Mean Survival Time” value ([4]; 200 mg/kg at -24 h, then 50 mg/kg/day day 0-6)?
A: 9.5 ± 2.1 days

Q: And the “Mean Survival Time” value ([4]; 200 mg/kg at -24 h only)?
A: 6.0 ± 1.3 days

Q: And the “protection, daily 50 mg/kg versus single 200 mg/kg dose” value ([4]; daily dose of 50 mg/kg after 200 mg/kg)?
A: protected to a greater degree
